# Measured values published in patent US8937064B2, “Pyrazolo[1,5-a]pyrimidines useful as JAK2 inhibitors” (Vertex Pharmaceuticals Incorporated, priority 2007, dated 2015).
# Columns and labels:
# [1] = target: T1, JAK3 (Homo sapiens, UniProt P52333); assay: JAK3 Inhibition Assay; format: biochemical; details: 1 nM JAK3, 1 μM poly(Glu)4Tyr, 5 μM ATP, 25° C., 33P incorporation
# T1 sequence (P52333 1-1124): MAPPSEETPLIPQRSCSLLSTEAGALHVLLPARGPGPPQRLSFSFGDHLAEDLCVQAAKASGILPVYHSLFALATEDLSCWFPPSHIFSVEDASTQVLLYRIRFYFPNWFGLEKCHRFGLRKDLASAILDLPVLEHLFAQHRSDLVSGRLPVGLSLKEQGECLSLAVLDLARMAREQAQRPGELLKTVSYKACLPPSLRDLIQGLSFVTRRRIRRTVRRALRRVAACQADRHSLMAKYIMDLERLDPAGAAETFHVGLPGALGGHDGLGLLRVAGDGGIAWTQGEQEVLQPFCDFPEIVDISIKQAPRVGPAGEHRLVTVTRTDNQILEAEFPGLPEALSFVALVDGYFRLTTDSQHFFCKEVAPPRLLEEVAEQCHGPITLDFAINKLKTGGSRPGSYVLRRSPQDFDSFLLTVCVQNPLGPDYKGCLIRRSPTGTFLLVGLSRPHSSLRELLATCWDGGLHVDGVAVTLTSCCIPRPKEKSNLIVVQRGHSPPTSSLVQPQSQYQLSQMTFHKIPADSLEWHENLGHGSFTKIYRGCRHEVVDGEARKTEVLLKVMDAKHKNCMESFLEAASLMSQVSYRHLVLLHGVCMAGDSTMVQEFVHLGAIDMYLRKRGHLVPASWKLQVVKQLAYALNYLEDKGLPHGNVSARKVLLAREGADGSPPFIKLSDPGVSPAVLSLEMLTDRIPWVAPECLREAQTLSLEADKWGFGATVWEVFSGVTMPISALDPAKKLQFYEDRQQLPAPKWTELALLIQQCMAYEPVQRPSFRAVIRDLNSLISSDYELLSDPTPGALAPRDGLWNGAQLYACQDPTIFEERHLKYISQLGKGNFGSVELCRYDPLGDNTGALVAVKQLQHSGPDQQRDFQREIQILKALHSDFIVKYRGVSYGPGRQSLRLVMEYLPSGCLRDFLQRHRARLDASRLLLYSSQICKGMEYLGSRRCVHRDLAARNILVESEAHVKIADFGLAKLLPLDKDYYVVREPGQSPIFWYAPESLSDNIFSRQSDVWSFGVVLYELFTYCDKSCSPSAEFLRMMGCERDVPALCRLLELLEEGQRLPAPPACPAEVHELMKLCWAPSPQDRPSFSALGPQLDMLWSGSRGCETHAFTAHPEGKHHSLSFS
# [2] = target: JAK-2 enzyme (Homo sapiens, UniProt O60674); assay: JAK2 Inhibition Assay
# Sequence of JAK-2 enzyme (O60674 whole entry): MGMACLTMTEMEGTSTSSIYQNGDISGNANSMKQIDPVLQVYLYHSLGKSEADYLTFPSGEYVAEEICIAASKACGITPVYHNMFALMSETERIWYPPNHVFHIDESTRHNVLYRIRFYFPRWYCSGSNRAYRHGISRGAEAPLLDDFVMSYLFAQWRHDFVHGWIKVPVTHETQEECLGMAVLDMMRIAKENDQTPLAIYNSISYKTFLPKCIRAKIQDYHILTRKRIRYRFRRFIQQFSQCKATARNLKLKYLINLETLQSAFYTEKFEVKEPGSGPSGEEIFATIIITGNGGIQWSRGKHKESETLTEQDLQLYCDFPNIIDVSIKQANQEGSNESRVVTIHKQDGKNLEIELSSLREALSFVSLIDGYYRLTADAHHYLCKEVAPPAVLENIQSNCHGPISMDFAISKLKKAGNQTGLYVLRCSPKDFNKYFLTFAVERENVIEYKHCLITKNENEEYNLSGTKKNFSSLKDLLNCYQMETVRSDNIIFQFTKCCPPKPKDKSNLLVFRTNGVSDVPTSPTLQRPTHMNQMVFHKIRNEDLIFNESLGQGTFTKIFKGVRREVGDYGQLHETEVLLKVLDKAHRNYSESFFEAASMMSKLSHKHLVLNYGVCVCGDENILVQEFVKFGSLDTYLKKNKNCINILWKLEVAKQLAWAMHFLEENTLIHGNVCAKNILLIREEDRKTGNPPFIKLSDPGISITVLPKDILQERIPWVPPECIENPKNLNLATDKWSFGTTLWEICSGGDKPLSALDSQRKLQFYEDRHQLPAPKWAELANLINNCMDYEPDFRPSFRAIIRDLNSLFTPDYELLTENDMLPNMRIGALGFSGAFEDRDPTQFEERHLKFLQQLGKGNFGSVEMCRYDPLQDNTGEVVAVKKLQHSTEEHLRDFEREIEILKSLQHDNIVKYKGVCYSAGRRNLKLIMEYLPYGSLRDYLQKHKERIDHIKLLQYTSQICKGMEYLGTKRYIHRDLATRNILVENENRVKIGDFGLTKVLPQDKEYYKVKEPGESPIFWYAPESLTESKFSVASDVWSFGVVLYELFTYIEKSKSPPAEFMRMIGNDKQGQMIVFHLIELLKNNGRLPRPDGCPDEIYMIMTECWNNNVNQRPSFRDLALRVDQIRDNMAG
# Description: Reactions were carried out in a kinase buffer containing 100 mM HEPES (pH 7.4), 1 mM DTT, 10 mM MgCl2, 25 mM NaCl, and 0.01% BSA. Substrate concentrations in the assay were 5 μM ATP (200 uCi/μmole ATP) and 1 μM poly(Glu)4Tyr. Reactions were carried out at 25° C. and 1 nM JAK3.
# To each well of a 96 well polycarbonate plate was added 1.5 μl of a candidate JAK3 inhibitor along with 50 μl of kinase buffer containing 2 μM poly(Glu)4Tyr and 10 μM ATP. This was then mixed and 50 μl of kinase buffer containing 2 nM JAK3 enzyme was added to start the reaction. After 20 minutes at room temperature (25° C.), the reaction was stopped with 50 μl of 20% trichloroacetic acid (TCA) that also contained 0.4 mM ATP. The entire contents of each well were then transferred to a 96 well glass fiber filter plate using a TomTek Cell Harvester. After washing, 60 μl of scintillation fluid was added and ^33P incorporation detected on a Perkin Elmer TopCount.
Ki [1] [nM],Ki [2] [nM],SMILES
10 to 100,< 10,CC(Oc1cc(-c2c(N)nn3cccnc23)ncn1)c1ccc(F)cc1 (stereo not drawn) [Compound 71]
100 to 500,< 10,CCC(=O)Nc1nc(N[C@@H](C)c2ccc(F)cc2F)cc(-c2cnn3cccnc23)n1 [Compound 188]
100 to 500,10 to 100,CCN(CC)C(=O)COc1nc(N[C@@H](C)c2ccc(F)cc2F)cc(-c2c(N)nn3cccnc23)n1 [Compound 127]
10 to 100,< 10,C[C@H](Nc1cc(-c2cnn3cccnc23)nc(OCC2CCCNC2)n1)c1ccc(F)cc1F (stereo partly drawn) [Compound 202]
10 to 100,< 10,COCCNc1nc(N[C@@H](C)c2ccc(F)cc2)cc(-c2c(N)nn3cccnc23)n1 [Compound 119]
100 to 500,10 to 100,C[C@H](Nc1cc(-c2c(N)nn3cccnc23)nc(OCC2CCCC2)n1)c1ccc(F)cc1 [Compound 176]
100 to 500,< 10,C[C@H](Nc1cc(-c2c(N)nn3cccnc23)nc(OC[C@H]2CO2)n1)c1ccc(F)cc1 [Compound 159]
100 to 500,10 to 100,CC/C=C\COc1nc(N[C@@H](C)c2ccc(F)cc2)cc(-c2c(N)nn3cccnc23)n1 [Compound 165]
10 to 100,< 10,CCC[C@H](Nc1cc(-c2c(N)nn3cccnc23)nc(S(C)(=O)=O)n1)c1ccc(F)cc1 [Compound 110]
10 to 100,10 to 100,C[C@H](Nc1cc(-c2c(N)nn3cccnc23)nc(OCC2CCCN(C)C2)n1)c1ccc(F)cc1 (stereo partly drawn) [Compound 171]
< 10,< 10,COc1nc(N[C@@H](C)c2ccc(F)cc2F)cc(-c2c(N)nn3cccnc23)n1 [Compound 132]
10 to 100,< 10,Nc1nn2cccnc2c1-c1cc(NCc2ccsc2Br)ncn1 [Compound 36]
10 to 100,< 10,C[C@H](Nc1cc(-c2cnn3cccnc23)nc(OCCN2CCCC2)n1)c1ccc(F)cc1F [Compound 204]
10 to 100,< 10,C[C@H](Nc1cc(-c2cnn3cccnc23)nc(OCCC2CCCCN2)n1)c1ccc(F)cc1F (stereo partly drawn) [Compound 198]
100 to 500,10 to 100,Nc1nn2cccnc2c1-c1cc(N[C@@H]2CCCc3ccccc32)ncn1 [Compound 79]
100 to 500,10 to 100,CC(C)[C@@H](Nc1cc(-c2cnn3cccnc23)ncn1)c1ccc(F)cc1F [Compound 120]

Ki [1] [nM],Ki [2] [nM],SMILES
10 to 100,< 10,C[C@H](Nc1cc(-c2c(N)nn3cccnc23)nc(OCC2CCOC2)n1)c1ccc(F)cc1F (stereo partly drawn) [Compound 130]
10 to 100,< 10,CNCCOc1nc(N[C@@H](C)c2ccc(F)cc2F)cc(-c2cnn3cccnc23)n1 [Compound 199]
10 to 100,< 10,C[C@H](Nc1cc(-c2c(N)nn3cccnc23)nc(OCCN2CCOCC2)n1)c1ccc(F)cc1 [Compound 109]
10 to 100,< 10,C[C@H](Nc1cc(-c2cnn3cccnc23)nc(N)n1)c1ccc(F)cc1F [Compound 147]
10 to 100,< 10,C[C@H](Nc1cc(-c2cnn3cccnc23)nc(OCCNC(C)(C)C)n1)c1ccc(F)cc1F [Compound 206]
500 to 5000,10 to 100,C[C@@H](Nc1cc(-c2cnn3cccnc23)ncn1)c1ccc(Cl)cc1 [Compound 146]
10 to 100,< 10,C[C@H](Nc1cc(-c2cnn3cccnc23)nc(OCCN2CCNCC2)n1)c1ccc(F)cc1F [Compound 210]
10 to 100,< 10,CC[C@H](Nc1cc(-c2c(N)nn3ccc(C)nc23)ncn1)c1ccc(F)c(F)c1 [Compound 94]
100 to 500,10 to 100,Nc1nn2cccnc2c1-c1cc(N2CCc3ccccc3C2)ncn1 [Compound 42]
100 to 500,10 to 100,Nc1nn2cccnc2c1-c1cc(NCc2cc(C(F)(F)F)ccc2F)ncn1 [Compound 45]
> 5000,500 to 5000,Nc1nn2cccnc2c1-c1cc(OC(c2ccccc2)C2CC2)ncn1 (stereo not drawn) [Compound 66]
10 to 100,< 10,C[C@H](Nc1cc(-c2c(N)nn3cccnc23)ncn1)c1ccc(Cl)cc1F [Compound 81]
10 to 100,< 10,C[C@H](Nc1cc(-c2c(N)nn3cc(F)cnc23)ncn1)c1ccc(F)cc1F [Compound 105]
100 to 500,10 to 100,CC(C)[C@H](Nc1cc(-c2c(N)nn3ccc(C(F)(F)F)nc23)ncn1)c1ccc(F)cc1F [Compound 136]
100 to 500,10 to 100,CC(C)Oc1nc(N[C@@H](C)c2ccc(F)cc2F)cc(-c2c(N)nn3cccnc23)n1 [Compound 129]

# Second part, the molecule before the results:
SMILES,Ki [1] [nM],Ki [2] [nM]
C[C@H](Nc1cc(-c2c(N)nn3cccnc23)nc(OC[C@@H]2CO2)n1)c1ccc(F)cc1 [Compound 163],500 to 5000,10 to 100
CC#CC(C)Oc1nc(N[C@@H](C)c2ccc(F)cc2)cc(-c2c(N)nn3cccnc23)n1 (stereo partly drawn) [Compound 181],100 to 500,10 to 100
C[C@H](Nc1cc(-c2c(N)nn3cccnc23)nc(OCCCC2CCCC2)n1)c1ccc(F)cc1 [Compound 177],500 to 5000,100 to 500
C[C@H](Nc1cc(-c2cnn3cccnc23)nc(OCCCN(C)C)n1)c1ccc(F)cc1F [Compound 211],10 to 100,< 10
COC(C)(C)CCOc1nc(N[C@@H](C)c2ccc(F)cc2F)cc(-c2cnn3cccnc23)n1 [Compound 194],100 to 500,10 to 100
C[C@H](Nc1cc(-c2cnn3cccnc23)nc(OCCCNCc2ccncc2)n1)c1ccc(F)cc1F [Compound 220],10 to 100,< 10
CC(C)CCCOc1nc(N[C@@H](C)c2ccc(F)cc2)cc(-c2c(N)nn3cccnc23)n1 [Compound 167],500 to 5000,10 to 100
Nc1nn2cccnc2c1-c1cc(N2Cc3ccccc3C2)ncn1 [Compound 27],100 to 500,10 to 100
CSCCOc1nc(N[C@@H](C)c2ccc(F)cc2F)cc(-c2cnn3cccnc23)n1 [Compound 212],10 to 100,< 10
C[C@H](Nc1cc(-c2c(N)nn3cccnc23)nc(O)n1)c1ccc(F)cc1 [Compound 161],10 to 100,< 10
C[C@H](c1ccccc1)N(C)c1cc(-c2c(N)nn3cccnc23)ncn1 [Compound 20],100 to 500,10 to 100
CC[C@H](Nc1ccnc(-c2cnn3cccnc23)n1)c1ccc(F)c(F)c1 [Compound 225],500 to 5000,10 to 100
CC[C@H](Nc1cc(-c2c(N)nn3cccnc23)ncn1)c1ccc(F)c(F)c1 [Compound 62],10 to 100,< 10
CC[C@H](Nc1cc(-c2cnn3cccnc23)ncn1)c1ccc(F)c(F)c1 [Compound 145],10 to 100,< 10
C[C@H](Nc1cc(-c2c(N)nn3ccc(C(F)(F)F)nc23)ncn1)c1ccc(F)cc1 [Compound 134],10 to 100,10 to 100
CC(C)[C@@H](Nc1cc(-c2c(N)nn3cccnc23)nc(S(C)(=O)=O)n1)c1ccc(F)cc1F [Compound 113],500 to 5000,100 to 500
C[C@H](Nc1cc(-c2c(N)nn3cccnc23)nc(N2CC[C@@H](F)C2)n1)c1ccc(F)cc1 [Compound 189],100 to 500,< 10
N#Cc1cccc(C(=O)Nc2ccnc(-c3cnn4cccnc34)c2)c1 [Compound 230],500 to 5000,100 to 500
C#CCCCOc1nc(N[C@@H](C)c2ccc(F)cc2)cc(-c2c(N)nn3cccnc23)n1 [Compound 183],10 to 100,< 10
CC#CCCOc1nc(N[C@@H](C)c2ccc(F)cc2)cc(-c2c(N)nn3cccnc23)n1 [Compound 155],100 to 500,< 10
C[C@H](Nc1cc(-c2cnn3cccnc23)ncn1)c1ccc(F)cc1F [Compound 117],10 to 100,< 10
C[C@H](Nc1cc(-c2cnn3cccnc23)nc(OCCOCCN2CCNCC2)n1)c1ccc(F)cc1F [Compound 203],100 to 500,10 to 100
Cc1ccccc1CNc1cc(-c2c(N)nn3cccnc23)ncn1 [Compound 11],10 to 100,< 10
